We go through six substances from patent publication US20080234183A1, “Cell Penetrating Peptides” (priority 2002, published 2008).

In data set [1] the test system is N2A mouse neuroblastoma cells. Put plainly: Cellular internalisation assay of fluorescein-labelled APP and PS peptides. The data set is classed as cell-based.
Data set [2] concerns N2A mouse neuroblastoma cells. The description is as above. The data set is classed as cell-based. To be noted: 10 μM, 37°. Here is the method:
Mouse neuroblastoma cells, N2A, were cultivated in Dulbecco's minimal essential medium with Glutamax-I, supplemented with 10% (v/v) fetal bovine serum, penicillin (100 U/ml) and streptomycin (100 μg/ml).
The cells used for Internalisation were seeded out on round glass coverslips in 24well plates. One day post seeding, the cells were semi confluent, and the medium was changed to serum-free medium. The fluorescein-labelled peptides were added, with a final concentration of 10 μM. After 60 min of incubation at 37°, the cells were washed 3 times with 1 ml of Hepes-Krebbs-Ringer-(HKR) buffer and fixed with 3% paraformaldehyde solution in phosphate-buffered saline solution (PBS) for 10 minutes. The cells were then washed 3 times with 1 ml of HKR-buffer, and the coverslips were mounted and sealed for microscopy studies.
The cell type used for the internalisation assays with the fluorescein'tagged peptides was N2A mouse neuroblastoma cells. This cell-line is commonly used in association with Alzheimer's disease studies, and serves as a good model cell-line for these internalisation assays where peptides derived from proteins involved in Alzheimer's disease were examined. These Internalisation assays were performed at 37° C., therefore the internalisation by endocytosis cannot be excluded.

The next data set has as its system N2a cells. The data set can be described thus: Cellular internalisation of M630 conjugated to fluorescein. To be noted: 5 μM, 1 h, 37° C. It counts as cell-based. As for the experimental part:
FIG. 42. Cellular internalisation of M630 conjugated to fluorescein in N2a cells, visualised by confocal microscope. The cells were incubated for 1 h at 37° C. with a final peptide concentration of 5 μM.

The next data set has as its system Porcine coronary artery. The data set can be described thus: Effect of M630 on porcine coronary artery. As for the experimental part:
CGRP receptor loop iC4, sequence 391-405 ([…]) was synthesised and tested at blood vessels as described for the ATLAR loop previously.
Porcine coronary artery was contracted by using KCl. After relaxation of the artery by washing, 50 μM M630 was applied. Contraction started after approximately 10 min and reached maximum in 15 to 20 min after application. […] The effect was reproducible and always very clearly observed. The lag-period of 10 min could be the time needed for the penetration of M630 into the cells.

The target in another data set is T1, Gi (Bos taurus, UniProt P63097).
T1 construct: made in house; host or cells: Sf9 insect cells (baculovirus); membranes used
T1 sequence (P63097 2-354 limits assumed): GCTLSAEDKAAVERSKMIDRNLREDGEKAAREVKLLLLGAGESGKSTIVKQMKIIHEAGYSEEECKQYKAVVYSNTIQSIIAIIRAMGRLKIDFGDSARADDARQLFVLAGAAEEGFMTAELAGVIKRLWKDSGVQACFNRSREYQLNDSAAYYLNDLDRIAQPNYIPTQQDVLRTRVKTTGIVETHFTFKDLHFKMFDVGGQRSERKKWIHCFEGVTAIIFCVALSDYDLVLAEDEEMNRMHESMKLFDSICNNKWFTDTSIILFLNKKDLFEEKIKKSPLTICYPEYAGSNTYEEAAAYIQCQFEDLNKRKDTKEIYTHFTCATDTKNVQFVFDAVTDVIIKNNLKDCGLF
The data set can be described thus: GTPase activity of Sf9 membranes overexpressing G-proteins. The data set is classed as biochemical, bovine. To be noted: 100 μM. The text has this: (§1) Baculovirus transfer vectors harboring the genes for Gsα, Giα1 and β1γ2 were kindly provided by Dr. Tatsuya Haga (University of Tokyo, Tokyo, Japan). The cDNA for bovine Gsα (21) in pVL1392, bovine Giα1 (22) In pVL1392 and bovine β1γ2 (23) in pVL1393 were cotransfected with linearized baculovirus DNA (Pharmingen, San Diego, Calif., USA), and the resulted virus stocks were subjected to one round of plaque purification before generation of high-titer virus stocks. In the expression procedure, Sf9 cells at density of 2 million cells/ml in suspension culture were Infected with a ratio 2:1 of a versus βγ. Cells were harvested 48 h post-infection, washed in PBS and stored at −70° C. until membrane preparation.
(§2) Frozen pieces of blood vessels were mechanically pulverized. […] Until used, they were kept frozen in the concentration of 1-2 mg protein/ml as determined by the method of Lowry (Lowry, O. H., Rosenbrough, N.Y., Farr, A. L. & Randall, R. J. J. Biol. Chem. 193, 265-275 (1951)). […]
(§3) Incubation medium was standard TE-buffer, pH 7.5. […] Blank values were determined by the replacement of membrane solution with assay buffer. […] The radioactivity of the yielding radioactive phosphate was determined in Packard 3255 liquid scintillation counter.

The target in another data set is T2, Gs (Bos taurus, UniProt P04896).
T2 construct: made in house; host or cells: Sf9 insect cells (baculovirus); membranes used
T2 sequence (P04896 whole entry): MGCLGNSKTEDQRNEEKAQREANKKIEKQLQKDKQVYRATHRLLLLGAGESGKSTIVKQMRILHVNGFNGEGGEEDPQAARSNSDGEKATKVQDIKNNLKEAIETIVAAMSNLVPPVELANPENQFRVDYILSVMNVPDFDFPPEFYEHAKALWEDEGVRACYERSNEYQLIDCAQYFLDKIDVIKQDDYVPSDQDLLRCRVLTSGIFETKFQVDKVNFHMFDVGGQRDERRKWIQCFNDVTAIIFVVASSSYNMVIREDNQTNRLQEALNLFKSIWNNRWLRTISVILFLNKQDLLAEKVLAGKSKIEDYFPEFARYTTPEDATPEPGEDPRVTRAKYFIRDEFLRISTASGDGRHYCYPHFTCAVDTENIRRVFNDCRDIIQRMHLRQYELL
Described as above. The data set is classed as biochemical, bovine. As to conditions: 100 μM.
Text: as §1, §2, §3

A further data set deals with T3, Go (Homo sapiens, UniProt P09471).
T3 construct: made in house; host or cells: Sf9 insect cells (baculovirus); membranes used
T3 sequence (P09471 whole entry): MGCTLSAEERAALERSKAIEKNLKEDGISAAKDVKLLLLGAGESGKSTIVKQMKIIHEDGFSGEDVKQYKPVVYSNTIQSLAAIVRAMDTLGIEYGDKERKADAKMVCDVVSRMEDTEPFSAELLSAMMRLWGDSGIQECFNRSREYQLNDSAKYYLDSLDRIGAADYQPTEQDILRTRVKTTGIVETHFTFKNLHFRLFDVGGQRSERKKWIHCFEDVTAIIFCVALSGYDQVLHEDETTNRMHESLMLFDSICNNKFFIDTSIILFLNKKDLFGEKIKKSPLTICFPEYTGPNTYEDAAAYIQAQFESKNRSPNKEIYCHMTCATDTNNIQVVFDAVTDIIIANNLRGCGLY
Described as above. The data set is classed as biochemical. To be noted: 100 μM.

The test system of a further data set is human umbilical artery. The data set can be described thus: Blood vessel contraction measurement. As for the experimental part: (§4) Dissected porcine hearts (260-390 g) were transported from local slaughterhouse to the laboratory in ice-cold Krebs-Henseleit solution (119 mM NaCl, 23.8 mM NaHCO3, 3 mM KCl, 1.14 mM NaH2PO4, 1.63 mM CaCl2, and 16.5 mM glucose). Left anterior descending coronary artery and great cardiac vein were isolated. Part of each blood vessel was used immediately after Isolation for contraction assays while part of it was kept frozen in liquid nitrogen for the membrane preparation. In some experiments blood vessels in which endothelium was mechanically removed were used. The same procedure was used also for the preparation of human umbilical blood vessels; umbilical cords were obtained from Obstetric Clinic of Ljubljana Clinical Center, Slovenia.
(§5) The measurements were performed as already described (20). Rings (5 mm wide) of blood vessels were cut and mounted into 10 ml tissue chamber filled with Krebs-Henseleit solution (37° C.; pH=7.4) which was oxygenated with the mixture of ^95% O2 and 5% CO2. Initial tension of 50 mN was applied and after equilibration 30 mM KCl was added to obtain stable Isometric contraction. The presence of endothelium was verified with substance P. After washing out of KCl and substance P and after the equilibration of the system was restored, test peptide was added into the tissue chamber and blood vessel contraction was recorded.

Data set [3] relates to porcine left anterior descending coronary artery. The data set can be described thus: Blood vessel contraction measurement. As for the experimental part: as §4, §5
For the next data set, the target named is T4, G11 (Homo sapiens, UniProt P29992).
T4 construct: made in house; host or cells: Sf9 insect cells (baculovirus); membranes used
T4 sequence (P29992 1-359): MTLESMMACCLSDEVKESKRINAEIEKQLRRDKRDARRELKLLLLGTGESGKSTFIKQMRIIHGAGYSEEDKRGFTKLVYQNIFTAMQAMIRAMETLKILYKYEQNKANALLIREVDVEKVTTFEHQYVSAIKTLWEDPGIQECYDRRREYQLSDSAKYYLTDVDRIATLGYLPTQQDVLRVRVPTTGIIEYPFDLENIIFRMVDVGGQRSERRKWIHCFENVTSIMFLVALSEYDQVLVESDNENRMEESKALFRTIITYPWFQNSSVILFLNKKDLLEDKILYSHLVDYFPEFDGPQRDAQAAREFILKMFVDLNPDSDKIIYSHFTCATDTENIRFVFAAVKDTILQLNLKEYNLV
The data set can be described thus: GTPase activity of Sf9 membranes overexpressing G-proteins. To be noted: 100 μM. It counts as biochemical.

The next data set relates to great cardiac vein. The data set can be described thus: Blood vessel contraction measurement. Set-up: species or system porcine. Here is the method:
as §4, §5

In data set [4] the test system is G-proteins from blood vessel membranes. Put plainly: Rate of GTPγS binding to blood vessel membranes. The data set is classed as biochemical. To be noted: membranes from porcine left anterior descending coronary artery. As for the experimental part: Frozen pieces of blood vessels were mechanically pulverized. Subsequently membranes were obtained according to the protocol of McKenzie (McKenzie, F. R. Signal Transduction (Milliqan, E., Ed.), Oxford University Press, Oxford, N.Y., Tokyo. (1992)) with minor modifications. Until used, they were kept frozen in the concentration of 1-2 mg protein/ml as determined by the method of Lowry (Lowry, O. H., Rosenbrough, N.Y., Farr, A. L. & Randall, R. J. J. Biol. Chem. 193, 265-275 (1951)). The same procedure (with the exception of pulverization of tissue) was used also for the preparation of membranes from Sf9 cells which overexpressed the G-proteins of different types; protein concentrations of these membrane preparations were between 0.2 and 0.4 mg/ml.
The binding to G-proteins from blood vessel membranes was followed as described by McKenzie (McKenzie, F. R. Signal Transduction (Milligan, E., Ed.), Oxford University Press, Oxford, N.Y., Tokyo. (1992)). Briefly, the membranes (final protein concentration in the assay mixture was 0.05 mg/ml) were incubated for 3 min in the absence and presence of peptides in different concentrations with 0.5 nM [^35S]GTPγS at 13° C. […] The remaining radioactivity contained in the filters was determined in the LKB 1214 Rackbeta liquid scintillation counter. Blank values were determined by replacing the membrane preparations with buffer.

For another data set, the system named is Bowes and Caco-2. The data set can be described thus: PenMMP14 uptake in cells expressing MMP14. The data set is classed as cell-based, human. The text has this: FIG. 24. Another example of an Inactivated selCPP. PenMMP14 uptake in Bowes (A) and B)) and Caco-2 (C) and D)). The left column is uptake of fluorescein labelled peptide (A) and C)) and the […] with coumarine label (B) and D)).

For a further data set, the system named is T5, YTA-2ps.
T5 sequence: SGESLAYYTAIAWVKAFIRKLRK

Regarding KKKQYTSIHHGVVEVD [APP (725-740)], the “internalisation at 4° C.” value in data set [1] is “not internalised”. The cellular localisation entry in [2] is recorded as “mostly to the cytosol”. Besides, the cellular internalisation result in data set [2] (60 min) is “increased fluorescence compared to the background”.

As to VQAILRRNWNQYKIQ [Peptide M630], the cell membrane penetration result in the data set with N2a cells is “penetrates cell membranes by a non-endocytotic mechanism”. Moreover, the “effect on the contracted arteries” value in the data set on Porcine coronary artery is given as “no effect”. For the same substance, in the data set on Porcine coronary artery (50 μM), the “reversal of contraction by washing” value is reported as “Washing did not reverse the contraction” and the “time to start of contraction” value is “approximately 10 min”.

Regarding FLGKKFKKYFLQLLK [Peptide M511], the GTPase activity result with Gi is listed as “small but significant activation”; with Gs, “seems not to be affected”; with Go, “small but significant activation”; in the data set with G11 it was “moderate inhibition”. The “blood vessel contraction compared with porcine artery” value with human umbilical artery and with great cardiac vein was “Virtually Identical effect” in each case. In addition, the “termination of contraction by washing” value in [3] is “could not be terminated by washing”. Also, the blood vessel contraction result in [3] (16 μM) was “intense and long-lasting contraction”. In addition, in [3] (16 μM, comparable to 30 mM K+), the “strength of contraction as % of maximal effect of potassium ion” value is “approximately 50%”. For the same substance, the “contraction force higher than that induced by 30 mM KCl” value in data set [3] (100 mM M511 (so in the source)) is recorded as “about 40%”. Further, the “rate of binding of GTPγS” value in data set [4] is given as “dose-dependently increased”.

As to “coum-DEEQERSEN-IRQIKIWFQNRRMKWK*K-amide [SelCPP2]”, the cellular uptake result with Bowes and Caco-2 is on record as “taken up in cells expressing MMP14”.

For KGKFQLYLKLKFKFL [Scrambled M511], the blood vessel contraction entry in data set [3] (16 μM) is “did not cause any contraction”. Besides, the “rate of binding of GTPγS” value in data set [4] was “not active”.

Consider matrix metallo proteinase-2 (MMP-2), for which, in the data set on YTA-2ps, the “cleavage of the peptide by the protease, checked by mass spectrometry” value was “The correct cleavage of YTA-2 by MMP2 has also be confirmed by mass spectrometry (data not shown)”.
